Assay results as given in US8680300B2, “Dioxanes derived from regrouping carbohydrates and C-glycosides, process for obtaining same and uses thereof” (Universidad de la Laguna, priority 2009, dated 2014).

Experiments:
neural cell line HT22 [1] = assay: Cell proliferation trial, cell line HT22; format: cell-based, mouse; details: for antiproliferative effect (conclusion, in words): HT22; for decrease in normal proliferation: HT22, 24 hours, versus medium (DMSO at 0.01%), concentration not given
Procedure: (§1) Two stable cell lines of different origins were used for these trials: neural cell line HT22 from mouse hippocampus and line MCF7 from human breast cancer.
(§2) Both cell lines were grown in a DMEM culture medium supplemented with 10% foetal bovine serum and antibiotics at 37° C. with a 5% CO2 atmosphere. 35-mm Petri dishes were used as growth media. When the cultures reached approximately 80% confluence they were exposed to the different compounds of the study for 24 hours at 37° C., at concentrations of 0.1, 1 and 5 μM. The compounds were previously diluted in DMSO.
(§3) For the cytotoxicity trials, after 24 hours of treatment with the compounds, the cells were treated with trypsin, resuspending them in DMEM and counting them. On one hand, an aliquot of 100 μl was preserved for the total count of the cells present in Neubauer chambers. On the other, the rest of the cell volume (approximately 1 ml) was processed for dyeing with trypan blue to visualise those cells susceptible to dyeing (non-viable cells) against intact cells (viable cells). To this end, the ViCell (Beckman Coulter) quantifier was used.

MCF7 breast cancer cells [2] = assay: Cell proliferation trial, cell line MCF7; format: cell-based, human
Procedure: as §1, §2, §3

neural cell line HT22 [3] = assay: Cytotoxicity trial, trypan blue dye, cell line HT22; format: cell-based, mouse; details: HT22, concentrations of 1 and 5 μM
Procedure: as §1, §2, §3

MCF7 breast cancer cells [4] = assay: Cytotoxicity trial, trypan blue dye, cell line MCF7; format: cell-based, human; details: for cytotoxicity (conclusion, in words): MCF7, concentrations of 1 and 5 μM
Procedure: as §1, §2, §3

cell line HT22 = assay: Visualisation of HT22 cultures after exposure to the compounds; format: cell-based, mouse; details: HT22, 5 μM, after 4-5 hours of treatment
Procedure: as §1
(§4) Both cell lines were grown in a DMEM culture medium supplemented with 10% foetal bovine serum and antibiotics at 37° C. with a 5% CO2 atmosphere. 35-mm Petri dishes were used as growth media. […] The compounds were previously diluted in DMSO.
(§5) (The control cultures of FIG. 3 were compared to the cultures of HT22 and MCF7 exposed to the compounds—FIGS. 4 and 5 respectively—).

cell line MCF7 = assay: Visualisation of MCF7 cultures after exposure to the compounds; format: cell-based, human; details: MCF7, 5 μM, after 4-5 hours of treatment
Procedure: as §1, §4, §5

Structure (SMILES)	antiproliferative effect (conclusion, in words) (neural cell line HT22 [1])	decrease in normal proliferation (neural cell line HT22 [1])	antiproliferative effect (conclusion, in words) (MCF7 breast cancer cells [2]; MCF7)	proliferation inhibition (in words) (MCF7 breast cancer cells [2]; MCF7, 24 hours, versus medium (DMSO at 0.01%))	cytotoxicity (conclusion, in words) (neural cell line HT22 [3])	cytotoxicity (conclusion, in words) (MCF7 breast cancer cells [4])	cytotoxic effect on visualisation of cultures (cell line HT22)	cytotoxic effect on visualisation of cultures (cell line MCF7)	toxicity (percentage of cell death, trypan blue) (MCF7 breast cancer cells [4]; MCF7, 24 hours, normalised to medium (DMSO at 0.01%), concentration not given) [%]	toxicity (in words) (MCF7 breast cancer cells [4]; MCF7, 24 hours, concentration not given)
CO[C@H]1O[C@@H]2OC[C@@H](OC)[C@@H]2O[C@@H]1OC [Compound 8]	antiproliferative effects	approximately 50%	antiproliferative effects	partial proliferation inhibition	–	–	–	–	–	–
CO[C@H]1O[C@@H](OC(C)=O)[C@H]([C@@H](COC(C)=O)OC)O[C@@H]1OC [Compound 6]	–	–	–	–	highly cytotoxic	highly cytotoxic	significant cytotoxic effect	significant cytotoxic effect	–	–
CO[C@@H]1O[C@@H]2OC[C@@H](OC)[C@@H]2O[C@@H]1OC [Compound 9]	antiproliferative effects	approximately 50%	–	–	–	–	–	–	> 65	high toxicity
CO[C@@H]1O[C@@H](OC(C)=O)[C@H]([C@@H](COC(C)=O)OC)O[C@@H]1OC [Compound 7]	–	–	–	–	highly cytotoxic	highly cytotoxic	significant cytotoxic effect	significant cytotoxic effect	–	–
